Results from US7071335B2, “2-pyridinyl-1-piperazine therapeutic agents useful for treating pain” (Euro-Celtique S.A., priority 2002, dated 2006).

What was measured:
Format in all cases: cell-based
Human VR1 Receptor [1] = target: T1, Human VR1 Receptor (Homo sapiens, UniProt Q8NER1); assay: Inhibition of capsaicin-induced activation of VR1; conditions: mean ± SEM, n = number of experiments
Source text: (§1) Methods for assaying compounds capable of inhibiting VR1 are well known to those skilled in the art, for example, those methods disclosed in U.S. Pat. No. 6,239,267 to Duckworth et al.; U.S. Pat. No. 6,406,908 to McIntyre et al.; or U.S. Pat. No. 6,335,180 to Julius et al.

Human VR1 Receptor [2] = target: T1, Human VR1 Receptor; assay: Inhibition of pH-induced activation of VR1; conditions: mean ± SEM, n = number of experiments
Source text: as §1

rat mGluR5 = target: T2, rat mGluR5 (Rattus norvegicus, UniProt P31424); assay: CHO assay: calcium mobilization flux (FLIPR) in CHO-rat mGluR5 cells in the presence of glutamate; conditions: at a concentration of 10 μM, 10 uM glutamate
T2 construct: expressed in transfected cells; host or cells: CHO cells (CHO-rat mGluR5, kept under Geneticin selection)
Protocol: 40,000 CHO-rat mGluR5 cells/well were plated into 96 well plate (Costar 3409, Black, clear bottom, 96 well, tissue culture treated) for an overnight incubation in Dulbelcco's Modified Eagle's Medium (DMEM, pH 7.4) and supplemented with glutamine, 10% FBS, 1% Pen/Strep, and 500 ug/ml Geneticin. CHO-rat mGluR5 cells were washed and treated with Optimem medium and incubated for 1–4 hours prior to loading cells. […] The plates containing the CHO-rat mGluR5 cells were then transferred to Fluorometric Imaging Plate Reader (FLIPR) (commercially available from Molecular Devices Corporation of Sunnyvale, Calif.) for the assessment of calcium mobilization flux in the presence of glutamate and in the presence or absence of test compounds. After monitoring fluorescence for 15 seconds to establish a base line, DMSO solutions containing various concentrations of the test compound diluted in loading buffer (0.05 mL of 4× dilutions for the competition curves) were added to the cell plate and fluorescence was monitored for 2 minutes. […] Plate fluorescence is then monitored for an additional 60 seconds after agonist addition. […] In each experiment, fluorescence is monitored as a function of time and the data analyzed using Microsoft Excel and GraphPad Prism. […] In each experiment each data point was determined two times.

T1 sequence (Q8NER1 whole entry): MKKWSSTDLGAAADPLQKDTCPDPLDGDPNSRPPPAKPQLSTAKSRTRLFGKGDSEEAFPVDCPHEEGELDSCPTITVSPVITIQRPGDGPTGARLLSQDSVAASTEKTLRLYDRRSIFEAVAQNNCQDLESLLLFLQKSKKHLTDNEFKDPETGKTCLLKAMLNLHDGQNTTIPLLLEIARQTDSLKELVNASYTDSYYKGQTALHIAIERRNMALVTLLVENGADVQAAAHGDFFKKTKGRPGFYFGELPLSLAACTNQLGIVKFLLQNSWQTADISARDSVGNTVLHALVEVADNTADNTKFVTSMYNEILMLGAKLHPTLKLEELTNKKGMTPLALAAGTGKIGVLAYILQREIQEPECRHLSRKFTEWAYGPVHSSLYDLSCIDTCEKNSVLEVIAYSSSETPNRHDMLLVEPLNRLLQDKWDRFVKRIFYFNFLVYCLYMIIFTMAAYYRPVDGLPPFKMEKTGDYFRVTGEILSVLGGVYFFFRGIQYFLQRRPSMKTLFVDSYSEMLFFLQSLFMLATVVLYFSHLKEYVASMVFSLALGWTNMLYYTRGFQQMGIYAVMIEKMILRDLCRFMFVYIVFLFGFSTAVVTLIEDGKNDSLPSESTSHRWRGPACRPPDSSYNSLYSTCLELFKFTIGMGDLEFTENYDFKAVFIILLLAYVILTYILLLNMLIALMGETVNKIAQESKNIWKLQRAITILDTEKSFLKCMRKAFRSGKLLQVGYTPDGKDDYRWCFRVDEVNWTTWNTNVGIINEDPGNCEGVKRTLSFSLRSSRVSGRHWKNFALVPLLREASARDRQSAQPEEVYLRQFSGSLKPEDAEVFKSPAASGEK
T2 sequence (P31424 21-1203): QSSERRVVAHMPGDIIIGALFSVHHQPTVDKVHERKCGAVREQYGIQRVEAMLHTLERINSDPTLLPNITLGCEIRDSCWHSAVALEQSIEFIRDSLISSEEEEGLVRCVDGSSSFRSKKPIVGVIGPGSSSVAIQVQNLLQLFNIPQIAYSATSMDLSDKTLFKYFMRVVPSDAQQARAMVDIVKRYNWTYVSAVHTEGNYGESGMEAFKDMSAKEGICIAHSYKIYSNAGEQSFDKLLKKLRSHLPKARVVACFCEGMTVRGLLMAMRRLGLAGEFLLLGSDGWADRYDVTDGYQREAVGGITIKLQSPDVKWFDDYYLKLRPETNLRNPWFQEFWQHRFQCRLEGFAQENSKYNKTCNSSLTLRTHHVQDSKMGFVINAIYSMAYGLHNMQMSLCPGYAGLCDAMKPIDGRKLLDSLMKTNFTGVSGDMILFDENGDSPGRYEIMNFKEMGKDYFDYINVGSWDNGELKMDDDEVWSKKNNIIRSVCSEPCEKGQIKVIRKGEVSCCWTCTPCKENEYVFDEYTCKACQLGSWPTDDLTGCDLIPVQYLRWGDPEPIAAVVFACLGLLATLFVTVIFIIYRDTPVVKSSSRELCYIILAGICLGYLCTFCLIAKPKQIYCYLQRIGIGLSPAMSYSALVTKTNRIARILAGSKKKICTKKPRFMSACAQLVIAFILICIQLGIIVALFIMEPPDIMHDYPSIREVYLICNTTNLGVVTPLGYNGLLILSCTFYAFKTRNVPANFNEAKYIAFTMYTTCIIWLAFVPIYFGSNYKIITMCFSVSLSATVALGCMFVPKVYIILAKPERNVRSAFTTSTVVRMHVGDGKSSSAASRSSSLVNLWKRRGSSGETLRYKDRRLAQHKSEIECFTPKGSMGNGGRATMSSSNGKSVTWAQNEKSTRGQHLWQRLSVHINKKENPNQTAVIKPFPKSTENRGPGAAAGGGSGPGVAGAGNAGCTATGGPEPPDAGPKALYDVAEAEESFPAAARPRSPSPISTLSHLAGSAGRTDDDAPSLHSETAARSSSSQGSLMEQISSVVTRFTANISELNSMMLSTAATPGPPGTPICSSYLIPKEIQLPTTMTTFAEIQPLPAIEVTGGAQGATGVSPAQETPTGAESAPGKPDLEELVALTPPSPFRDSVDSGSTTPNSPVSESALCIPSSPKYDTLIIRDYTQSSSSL

Row | IC50 (Human VR1 Receptor [1]) | IC50 (Human VR1 Receptor [2]) | inhibition of mGluR5 (rat mGluR5) | Structure (SMILES)
1 | 1.3 ± 1.2 nM | 5.4 ± 2.5 nM | – | CC(C)(C)c1ccc(NC(=O)N2CCN(c3ncccc3F)CC2)cc1
2 | – | – | inhibits | Cc1cccc(CCNC(=O)N2CCN(c3ncccc3Cl)C[C@H]2C)c1C
